Reference: patent US11618747B2, “LXR modulators with bicyclic core moiety” (OrsoBio, Inc., priority 2018, dated 2023)

Experiments:
[1] = biological target: T1, LXRβ ligand-binding domain (Homo sapiens, UniProt P55055, DUP175-175); test: TR-FRETβ activity assay (NCoA3 coactivator peptide recruitment); format: biochemical; conditions: TR-FRET, 1 μM 24(S)-25-epoxycholesterol prestimulation; read-out: FRETβ (EC50 range)
T1 construct: amino acids 156-461; NP009052; made in house; host or cells: E. coli
T1 sequence (P55055 with tags, fused parts or gaps DUP175-175 limits assumed): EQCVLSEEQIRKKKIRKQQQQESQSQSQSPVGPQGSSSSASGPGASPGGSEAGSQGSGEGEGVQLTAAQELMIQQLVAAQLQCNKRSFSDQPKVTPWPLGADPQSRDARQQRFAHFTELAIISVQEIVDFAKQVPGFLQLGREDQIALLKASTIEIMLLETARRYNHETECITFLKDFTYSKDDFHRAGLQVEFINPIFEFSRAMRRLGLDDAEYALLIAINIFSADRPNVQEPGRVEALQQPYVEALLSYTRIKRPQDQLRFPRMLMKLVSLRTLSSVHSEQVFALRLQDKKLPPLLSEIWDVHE
Method in brief: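 Inverse agonism assessed by loss of coactivator recruitment, read as TR-FRET 665/615 nm after 1 h equilibration at 4 °C, in triplicate. Ten-point titration from 50 μM to 0.002 μM against LXRβ LBD (76 nM, GST fusion) prestimulated with 1 μM 24(S)-25-epoxycholesterol, with 400 nM NCoA3 peptide, pH 6.8. Sulfonyl acetic acids kept as 20 mM DMSO stocks with 100 mM TFA.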

[2] = biological target: T2, ligand-binding domain (LBD) of LXRα (Homo sapiens, UniProt Q13133); test: LXR Gal4 reporter transient transfection assay (LBD-M2H Gal4α); format: cell-based; conditions: HEK293 cells, LXRα LBD; read-out: LBD-M2H Gal4α (EC50 range)
T2 construct: expressed in transfected cells; host or cells: HEK293
T2 sequence (Q13133 155-447): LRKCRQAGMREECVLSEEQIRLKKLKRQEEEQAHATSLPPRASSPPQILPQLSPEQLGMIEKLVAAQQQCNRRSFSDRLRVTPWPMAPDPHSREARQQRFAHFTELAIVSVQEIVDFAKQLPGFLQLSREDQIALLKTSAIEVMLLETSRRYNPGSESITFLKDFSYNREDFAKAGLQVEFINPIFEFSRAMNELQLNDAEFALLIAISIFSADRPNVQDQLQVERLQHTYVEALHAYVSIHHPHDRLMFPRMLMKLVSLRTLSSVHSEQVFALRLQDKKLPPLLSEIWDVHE
Method: (§1) The tested compounds were usually dissolved, tested and stored as 20 mM stock solutions in DMSO. Since sulfonyl acetic acid derivatives tend to decarboxylate under these conditions, these stock solutions were prepared, tested and stored as 20 mM DMSO stock solutions containing 100 mM trifluoroacetic Acid (5 equivalents). Sulfonyl acetic acid derivatives are shelf stable as solid at rt for long time as reported by Griesbrecht et al. (Synlett 2010:374) or Faucher et al. (J. Med. Chem. 2004; 47:18).
(§2) LXR Gal4 Reporter Transient Transfection Assays
(§3) LXRα and LXRβ activity status was determined via detection of interaction with coactivator and corepressor proteins in mammalian two-hybrid experiments (M2H). For this, via transient transfection the full length (FL) proteins of LXRα (amino acids 1-447; NP005684; SEQ ID NO:1) or LXRβ-(amino acids 1-461; NP009052; SEQ ID NO:2) or the ligand-binding domains (LBD) of LXRα (amino acids 155-447 SEQ ID NO:3) or LXRβ (amino acids 156-461; SEQ ID NO:4) were expressed from pCMV-AD (Stratagene) as fusions to the transcriptional activation domain of NFkB. As cofactors, domains of either the steroid receptor coactivator 1 (SRC1; amino acids 552-887; SEQ ID NO:5) or of the corepressor NCoR (amino acids 1906-2312; NP006302; SEQ ID NO:6) were expressed as fusions to the DNA binding domain of the yeast transcription factor GAL4 (from pCMV-BD; Stratagene). Interaction was monitored via activation of a coexpressed Firefly Luciferase Reporter gene under control of a promoter containing repetitive GAL4 response elements (vector pFRLuc; Stratagene). Transfection efficiency was controlled via cotransfection of constitutively active pRL-CMV Renila reniformis luciferase reporter (Promega). HEK293 cells were grown in minimum essential medium (MEM) with 2 mM L-glutamine and Earle's balanced salt solution supplemented with 8.3% fetal bovine serum, 0.1 mM non-essential amino acids, 1 mM sodium pyruvate, at 37° C. in 5% CO2. 3.5×10^4 cells/well were plated in 96-well cell culture plates in growth medium supplemented with 8.3% fetal bovine serum for 16-20 h to ˜90% confluency. For transfection, medium was taken off and LXR and cofactor expressing plasmids as well as the reporter plasmids are added in 30 μL OPTIMEM/well including polyethylene-imine (PEI) as vehicle. Typical amounts of plasmids transfected/well: pCMV-AD-LXR (5 ng), pCMV-BD-cofactor (5 ng), pFR-Luc (100 ng), pRL-CMV (0.5 ng). Compound stocks were prepared in DMSO, prediluted in MEM to a total volume of 120 μL, and added 4 h after addition of the transfection mixture (final vehicle concentration not exceeding 0.2%). Cells were incubated for additional 16 h, lysed for 10 min in 1× Passive Lysis Buffer (Promega) and Firefly and Renilla luciferase activities were measured sequentially in the same cell extract using buffers containing D-luciferine and coelenterazine, respectively. Measurements of luminescence were done in a BMG-luminometer.

[3] = biological target: T3, ligand-binding domain (LBD) of LXRβ (Homo sapiens, UniProt P55055, DUP175-175); test: LXR Gal4 reporter transient transfection assay (LBD-M2H Gal4β); format: cell-based; conditions: HEK293 cells, LXRβ LBD; read-out: LBD-M2H Gal4β (EC50 range)
T3 construct: LXRβ (amino acids 156-461); expressed in transfected cells; host or cells: HEK293
T3 sequence (P55055 with tags, fused parts or gaps DUP175-175 limits assumed): T1 sequence (P55055 with tags, fused parts or gaps DUP175-175 limits assumed)
Method: as §1, §2, §3

[4] = Pharmacokinetics in mice after single oral dosing (blood/plasma and liver exposure); format: in vivo, mice (C57/bl6/J)
Method: The pharmacokinetics of the compounds was assessed in mice after single dosing and oral administrations. Blood/plasma and liver exposure was measured via LC-MS.
The study design was as follows:
Animals: C57/bl6/J (Janvier) males
Diet: standard rodent chow
Animal handling: animals were withdrawn from food at least 12 h before administration
Design: single dose oral administration, n=3 animals per group
Sacrifice: at stated time point (4, 12 or 24 h) after administration
Bioanalytics: LC-MS of liver and blood/plasma samples

| SMILES | EC50 [1] | EC50 [2] | EC50 [3] | blood/plasma exposure (below LLOQ, LLOQ value not given) ([4]; 20 mg/kg single oral dose, time point 4 h) | oral bioavailability (in words) ([4]; oral administration) |
| --- | --- | --- | --- | --- | --- |
| COc1ccc(S(=O)(=O)n2c(-c3ccccc3)c(-c3ccc4ncccc4c3C#N)c3ccccc32)cc1 [20/20] | 1000 to 10000 nM | 1000 to 10000 nM | 100 to 1000 nM | – | – |
| COc1ccc(S(=O)(=O)n2c(-c3ccccc3)c(-c3ccsc3C)c3ccccc32)cc1 [20/21] | 1000 to 10000 nM | 100 to 1000 nM | < 100 nM | – | – |
| COc1ccc(S(=O)(=O)n2c(-c3ccccc3)c(-c3ccsc3OC)c3ccccc32)cc1 [20/22] | 100 to 1000 nM | 100 to 1000 nM | 100 to 1000 nM | – | – |
| COc1ccc(S(=O)(=O)n2c(-c3ccccc3)c(-c3cc(C)sc3C#N)c3ccccc32)cc1 [20/23] | 1000 to 10000 nM | 100 to 1000 nM | 100 to 1000 nM | – | – |
| N#Cc1ccc(OCC(=O)O)cc1-c1c(-c2cccs2)n(S(=O)(=O)c2ccc(Cl)cc2)c2ccccc12 [21/1] | 1000 to 10000 nM | 1000 to 10000 nM | 1000 to 10000 nM | – | – |
| N#Cc1c(OCC(=O)O)cccc1-c1c(-c2cccs2)n(S(=O)(=O)c2ccc(Cl)cc2)c2ccccc12 [21/2] | 1000 to 10000 nM | 1000 to 10000 nM | 1000 to 10000 nM | – | – |
| N#Cc1sccc1-c1c(-c2ccc(F)cc2)n(S(=O)(=O)c2ccc(Cl)cc2)c2ccccc12 [26/1] | 1000 to 10000 nM | 100 to 1000 nM | < 100 nM | – | – |
| Cc1ccc(S(=O)(=O)n2c(-c3cccc(-c4cccc(C(=O)O)c4)c3)c(-c3ccsc3C#N)c3ccccc32)cc1 [30/1] | 100 to 1000 nM | 100 to 1000 nM | < 100 nM | – | – |
| Cc1ccc(S(=O)(=O)n2c(-c3cccc(-c4cccc(C(C)(C)C(=O)O)c4)c3)c(-c3ccsc3C#N)c3ccccc32)cc1 [30/2] | 1000 to 10000 nM | 100 to 1000 nM | 100 to 1000 nM | – | – |
| N#Cc1sccc1-c1c(-c2cccc(CCCC(=O)O)c2)n(S(=O)(=O)c2ccc(Cl)cc2)c2ccccc12 [30/5] | 1000 to 10000 nM | 100 to 1000 nM | < 100 nM | – | – |
| N#Cc1sccc1-c1c(-c2cccc(N3CC(C(=O)O)C3)n2)n(S(=O)(=O)c2ccc(Cl)cc2)c2ccccc12 [30/6] | 1000 to 10000 nM | 100 to 1000 nM | 100 to 1000 nM | – | – |
| N#Cc1sccc1-c1c(-c2ccc(C3CC3C(=O)O)s2)n(S(=O)(=O)c2ccc(Cl)cc2)c2ccccc12 (centres unmarked) [30/8] | 1000 to 10000 nM | 100 to 1000 nM | 100 to 1000 nM | – | – |
| N#Cc1sccc1-c1c(-c2cc(Cl)cc(C3CC3C(=O)O)c2)n(S(=O)(=O)c2ccc(Cl)cc2)c2ccccc12 (centres unmarked) [30/9] | 1000 to 10000 nM | 100 to 1000 nM | < 100 nM | – | – |
| N#Cc1sccc1-c1c(-c2cccc(N3CCC(C(=O)O)C3)c2)n(S(=O)(=O)c2ccc(Cl)cc2)c2ccccc12 (centres unmarked) [30/11] | 100 to 1000 nM | 100 to 1000 nM | < 100 nM | – | – |
| N#Cc1sccc1-c1c(-c2cccc(C3CC3C(=O)O)c2)n(S(=O)(=O)C2CC2)c2ccccc12 (centres unmarked) [30/12] | 1000 to 10000 nM | 1000 to 10000 nM | 100 to 1000 nM | – | – |
| Cc1ccc(S(=O)(=O)n2c(-c3cccc(C4CC4C(=O)O)c3)c(-c3ccsc3F)c3ccccc32)cc1 (centres unmarked) [30/14] | 1000 to 10000 nM | 100 to 1000 nM | 100 to 1000 nM | – | – |
| Cc1ccc(S(=O)(=O)n2c(-c3cccc(C4CC4C(=O)O)c3)c(-c3ccc(F)cc3C#N)c3ccccc32)cc1 (centres unmarked) [30/15] | 1000 to 10000 nM | 100 to 1000 nM | 100 to 1000 nM | – | – |
| CS(=O)(=O)NC(=O)C1CC1c1cccc(-c2c(-c3ccsc3C#N)c3ccccc3n2S(=O)(=O)c2ccc(Cl)cc2)c1 (centres unmarked) [32/1] | 100 to 1000 nM | 100 to 1000 nM | < 100 nM | – | – |
| NC(=O)c1sccc1-c1c(-c2cccs2)n(S(=O)(=O)c2ccc(Cl)cc2)c2ccccc12 [Example 22] | 1000 to 10000 nM | 100 to 1000 nM | 100 to 1000 nM | – | – |
| N#Cc1sccc1-c1c(-c2cccs2)n(S(=O)(=O)C2CCCCC2)c2ccccc12 [Example 24, 3-(1-(Cyclohexylsulfonyl)-2-(thiophen-2-yl)-1H-indol-3-yl)thiophene-2-carbonitrile] | 1000 to 10000 nM | 100 to 1000 nM | < 100 nM | – | – |
| N#Cc1sccc1-c1c(-c2ccccc2)n(S(=O)(=O)c2ccc(Cl)cc2)c2ccccc12 [Example 26, 3-(1-((4-Chlorophenyl)sulfonyl)-2-phenyl-1H-indol-3-yl)thiophene-2-carbonitrile] | 100 to 1000 nM | < 100 nM | < 100 nM | – | – |
| N#Cc1sccc1-c1c(-c2cccc(OCCC(=O)O)n2)n(S(=O)(=O)c2ccc(Cl)cc2)c2ccccc12 [Example 31, 3-((6-(1-((4-Chlorophenyl)sulfonyl)-3-(2-cyanothiophen-3-yl)-1H-indol-2-yl)pyridin-2-yl)oxy)propanoic Acid] | 1000 to 10000 nM | 100 to 1000 nM | 100 to 1000 nM | – | – |
| CCOC(=O)c1ccc(CN(Cc2ccc(-c3cccc(S(C)(=O)=O)c3)cc2)S(=O)(=O)c2c(C)cc(C)cc2C)o1 [SR9238, reference compound] | – | – | – | LLOQ | not orally bioavailable |
